One data set relates to HepG2. Description: HepG2 toxicity. As to conditions: Tables 1-3. Format: cell-based.
The test system of data set [1] is C. neoformans. Description: In vitro susceptibility testing (MIC / IC80). Format: cell-based, Cryptococcus neoformans. As to conditions: for IC80: Cryptococcus neoformans, Tables 1-3; for MIC: Example 2 table. As for the experimental part:
Minimal inhibitory concentration (MIC) was determined following the methods of the Clinical Laboratory Standards Institutes (CLSI) with modifications. MIC studies used either RPMI or YNB medium (pH 7.0, 0.2% glucose) buffered with HEPES. […] The compound was serially diluted from 32 to 0.03 μg/ml or 19 to 0.02 μg/ml respectively in a 96 well plate with the respective medium. The yeast inoculum was prepared as described in the CLSI protocol M27-A3 guidelines. Plates were incubated at 37° C. and in the presence of 5% CO2 for 24-96 hours. Against all fungal isolates used in the initial susceptibility screen, the MICs were determined as the lowest concentration of the drug that inhibited 50% of growth compared to the control. MIC80 and MIC100, whose drug concentrations inhibited 80% and 100% growth compared to the control respectively, were also determined. For antibacterial activity, E. coli DH5a and P. aeruginosa PA14 were grown overnight in Luria Bertani (LB) broth at 30° C. The cells were washed with PBS and counted. Then, 300 μL from 2×10^8 cells/mL was spreaded onto LB agar plate using a hockey stick glass spreader. The plate was dried, and wells were punched out using a cut tip. Fifty microliters of different drug concentration was added to the well. The plate was then incubated at 30° C. for 24 hours.

In another data set the test system is A549. Description: A549 toxicity. Format: cell-based.
Data set [2] deals with C. neoformans. The experiment in a line: In vitro killing assay (killing curve, Kapp, 48H killing). Format: cell-based, Cryptococcus neoformans. As to conditions: for Kill characteristics: FIG. 1A / FIG. 1B; for Kapp*: Kapp = K0 − Ki (C − Ci), killing curve versus MIC. As for the experimental part: From an overnight culture, C. neoformans cells were washed in PBS, resuspended in YNB buffered with HEPES at pH 7.4. Cells were counted and 2×10^4 cells were incubated with either 1, 2 or 4 μg/ml of compound in a final volume of 10 ml. Tubes were then incubated at 37° C. in the presence of 5% CO2 on a rotary shaker at 200 rpm. At the illustrated time points, aliquots were taken and diluted and 100 μL was plated onto yeast peptone dextrose (YPD) plates. YPD plates were incubated in a 30° C. incubator and, after 72 hours, colony forming units (CFU) were counted and recorded.

For data set [3], the system named is C. neoformans. Description: In vitro susceptibility (MIC80) assay. Format: cell-based. As to conditions: Cryptococcus neoformans; lowest concentration that inhibited 80% of growth; YNB pH 7.0, HEPES, 37° C., 5% CO2. As for the experimental part:
MICs was determined following the methods of the Clinical and Laboratory Standards Institutes (CLSI) with modifications. Yeast Nitrogen Base (YNB) medium (pH 7.0, 0.2% glucose) buffered with HEPES was used for MIC studies. […] The compound was serially diluted from 16 to 0.03 μg/ml, in a 96-well plate. The inoculum was prepared as described in the CLSI protocol M27A3 guidelines. The plates were incubated at 37° C. with 5% CO2 for 24 to 72 h and the optical density was measure at 450 nm. The MICs was determined as the lowest concentration of the compound that inhibited 80% of growth compared to the control.

The subject of a further data set is C. neoformans cells. Description: In vitro killing activity (K100) assay. As to conditions: Cryptococcus neoformans; minimum concentration that kills 100% of C. neoformans cells in 48 h. Format: cell-based, Cryptococcus neoformans. As for the experimental part:
C. neoformans cells from a culture grown overnight were washed in PBS and resuspended in YNB buffered with HEPES at pH 7.4. The cells were counted, and 2×10^4 cells were incubated with different concentration of compounds in a final volume of 10 ml with a final concentration of 0.5% DMSO. The tubes were then incubated at 37° C. with 5% CO2 on a rotary shaker at 200 rpm. Aliquots were taken at time points and diluted, and […] were plated onto Yeast Extract-Peptone-Dextrose (YPD) plates. YPD plates were incubated in a 30° C. incubator and after 48 h, the numbers of CFU were counted and recorded.

Data set [4] concerns C. neoformans. The experiment in a line: In vivo efficacy evaluation (survival study) in an animal model. The arrangement: species or system CBA/J mice. As to conditions: 20 mg/kg/day orally (gavage); mice infected intranasally with 5×10^5 C. neoformans cells. As for the experimental part: For survival study, 4-week old CBA/J (Envigo) male mice were used. They were divided as ten mice for each treatment or control group. Mice were infected intranasally with 20 μl of a suspension containing 5×10^5 C. neoformans cells and subsequently treated orally with 20 mg/kg/day of compound A15 and fluconazole as drug control in a final volume of 100 μl of PEG30% in a saline buffer. The untreated control group mice received 100 μl of PEG30% in a saline buffer. Gavage was used as route of administration. At the end of the experiment, 80% of the mice treated with compound A15 survived whereas, only 30% of the mice treated with fluconazole survived. Mice were fed ad libitum and monitored every day for discomfort and meningitis signs. Mice showing weight loss, lethargy, tremor or inability to reach food or water were sacrificed and survival was counted until that day (see FIG. 2).

In brackets after ≈: the same amount, converted by molar mass.

For orientation: IC80 means the point of the concentration-response curve where the effect stands at 80%. By MIC is commonly meant the lowest concentration that inhibits growth of the organism. A word on the MIC80: it is the lowest concentration that inhibits either 80% of growth or 80% of the strains tested, depending on the study. A high value points to lower susceptibility. One may read the melting point as the temperature, or range, at which the solid turns liquid.

In the case of `O=C(N/N=C/c1cc(Cl)ccc1O)c1cc(Br)ccc1Br`, the HepG2 with HepG2 came out at 32 µg/mL. In addition, in the data set with C. neoformans [1], the 80% effect level (IC80) was put at 0.25 µg/mL (≈ 0.578 µM). The compound also had an A549 in the data set on A549 (Tables 1-3) of 59 µg/mL.

Turning to `O=C(N/N=C/c1cc(Cl)cc(Cl)c1O)c1ccc(Br)cc1Br`, the HepG2 in the data set with HepG2 was found to be 64 µg/mL. It took 1 µg/mL (≈ 2.14 µM) to reach the 80% level with C. neoformans [1] (IC80). In addition, the A549 in the data set with A549 (Tables 1-3) was greater than 64 µg/mL.

As to `O=C(N/N=C/c1cc(Cl)cc(Cl)c1O)c1cc(Br)ccc1Br`, the HepG2 with HepG2 is 32 µg/mL. In addition, the 80% effect level in the data set with C. neoformans [1] (IC80) was put at 0.5 µg/mL (≈ 1.07 µM). In the data set with A549 (Tables 1-3), this compound yielded an A549 of 32 µg/mL.

`O=C(N/N=C/c1c(O)ccc2ccccc12)c1cc(Br)ccc1Br` yielded a HepG2 with HepG2 of 16 µg/mL. The IC80 in the data set with C. neoformans [1] was found to be 0.25 µg/mL (≈ 0.558 µM). Also, the A549 with A549 (Tables 1-3) is 32 µg/mL.

With `O=C(N/N=C/c1ccc(Br)cc1O)c1cccc(Br)c1`, in the data set on HepG2, the HepG2 was 9 µg/mL. For the same compound, in the data set on C. neoformans [1], it took 0.5 µg/mL (≈ 1.26 µM) to reach the 80% level (IC80). The A549 in the data set with A549 (Tables 1-3) was greater than 32 µg/mL.

`O=C(N/N=C/c1ccc(Br)cc1O)c1ccc(Br)cc1Br` had a HepG2 in the data set with HepG2 greater than 64 µg/mL. For the same compound, it took 0.06 µg/mL (≈ 0.126 µM) to reach the 80% level in the data set on C. neoformans [1] (IC80). In the data set on A549 (Tables 1-3), the A549 was greater than 32 µg/mL.

For `O=C(N/N=C/c1ccc(Br)cc1O)c1cccc(F)c1F`, the HepG2 with HepG2 stood at 16 µg/mL. Also, the IC80 in the data set with C. neoformans [1] came out at 0.5 µg/mL (≈ 1.41 µM). In addition, the A549 in the data set with A549 (Tables 1-3) was 16 µg/mL.

`O=C(N/N=C/c1ccc(Br)cc1O)c1ccc(Br)cc1` showed a HepG2 with HepG2 of 32 µg/mL. Also, the 80% effect level with C. neoformans [1] (IC80) was put at 0.06 µg/mL (≈ 0.151 µM). Besides, the A549 in the data set on A549 (Tables 1-3) amounted to 16 µg/mL. Besides, the “Killing assay 48H (μg/mL)” value in the data set with C. neoformans [2] is “Fungistatic”.

`O=C(N/N=C/c1ccc(Br)cc1O)c1cc(Br)ccc1Br` gave a HepG2 in the data set with HepG2 of 16 µg/mL. In the data set with C. neoformans [1], this compound showed an IC80 of 0.12 µg/mL (≈ 0.252 µM). In addition, the A549 in the data set with A549 (Tables 1-3) is 32 µg/mL.

Compound `O=C(N/N=C/c1cc(Br)ccc1O)c1ccc(Br)cc1Br` gave a HepG2 in the data set on HepG2 of 59 µg/mL. For the same compound, it took 0.12 µg/mL (≈ 0.252 µM) to reach the 80% level in the data set on C. neoformans [1] (IC80). The compound further yielded an A549 in the data set with A549 (Tables 1-3) greater than 32 µg/mL.

As for `O=C(N/N=C/c1cc(Br)ccc1O)c1cc(Br)ccc1Br`, the HepG2 in the data set on HepG2 was 32 µg/mL. The same compound showed a concentration for an effect of 80% (IC80) in the data set with C. neoformans [1] of 0.25 µg/mL (≈ 0.524 µM). In the data set on A549 (Tables 1-3), this compound yielded an A549 of 16 µg/mL.

As for `Cc1ccccc1C(=O)N/N=C/c1cc(Br)ccc1O` [Compound 1], the lowest concentration to inhibit growth in the data set with C. neoformans [1] (MIC) was 1 µg/mL (≈ 3 µM). This compound returned an A549 in the data set on A549 (Example 2 table) of 32. Besides, in the data set on C. neoformans [2], the Kill characteristics entry is “killed C. neoformans in a concentration dependent manner” and the “Kapp*” value turned out to be 0.024.

Regarding `O=C(N/N=C/c1cc(Br)ccc1O)c1cccc(Br)c1` [Compound 2], the minimal inhibitory concentration (MIC) against C. neoformans [1] amounted to 0.25 µg/mL (≈ 0.628 µM). The same compound yielded an A549 in the data set on A549 (Example 2 table) of 64. Moreover, in the data set on C. neoformans [2], the Kill characteristics entry is listed as “killed C. neoformans in a time dependent manner” and the “Kapp*” value was −0.142.

Compound `O=C(N/N=C/c1cc(Br)cc(Br)c1O)c1ccc(Br)cc1` [Compound 13] yielded an MIC with C. neoformans [1] of 0.06 µg/mL (≈ 0.126 µM). In the data set on A549 (Example 2 table), this compound returned an A549 greater than 128. The “Kapp*” value with C. neoformans [2] is −0.428.

In the data set with C. neoformans [1], `O=C(N/N=C/c1cc(Br)ccc1O)c1cc(Br)cc(Br)c1O` [Compound 17] displayed an MIC of 0.5 µg/mL (≈ 1.01 µM). In the data set on A549 (Example 2 table), this compound returned an A549 of 16. In addition, the “Kapp*” value with C. neoformans [2] amounted to 0.077.

For `COCc1ccc(C(=O)N/N=C/c2cc(Br)cc(Br)c2O)cc1` [Compound A15, 4-Methoxymethyl-N′-(3,5-dibromo-2-hydroxybenzylidene)benzohydrazide], the MIC80 against C. neoformans [3] was determined as 0.007 µg/mL (≈ 0.0158 µM). In the data set with C. neoformans cells, this compound gave an MFC of 0.03 µg/mL (≈ 0.0679 µM). Further, the “mice survived at the end of the experiment” value in the data set with C. neoformans [4] is reported as 80%.

As to `[N-]=[N+]=Nc1ccc(C(=O)N/N=C/c2cc(Br)cc(Br)c2O)cc1` [Compound A45, 4-Azido-N′-(3,5-dibromo-2-hydroxybenzylidene)benzohydrazide], the melting point is 193 to 197 °C. In the data set with C. neoformans [3], this compound came in with an MIC80 of 0.06 µg/mL (≈ 0.137 µM).

`O=C(N/N=C/c1cc(Br)cc(Br)c1O)c1cnc2ccccc2c1` [drawing 62]: the HepG2 in the data set with HepG2 worked out at 32 µg/mL. The same compound displayed a concentration for an effect of 80% (IC80) in the data set on C. neoformans [1] of 0.25 µg/mL (≈ 0.557 µM). This compound displayed an A549 with A549 (Tables 1-3) of 32 µg/mL. In addition, the “Killing assay 48H (μg/mL)” value with C. neoformans [2] is “Fungistatic”.

`Cc1ccc(O)c(/C=N/NC(=O)c2cc(Br)cc(Br)c2O)c1` [drawing 66] registered a HepG2 with HepG2 of 8 µg/mL. The concentration for an effect of 80% (IC80) with C. neoformans [1] was determined as 0.25 µg/mL (≈ 0.584 µM). The A549 in the data set with A549 (Tables 1-3) worked out at 4 µg/mL.

In the data set with HepG2, `O=C(N/N=C/c1ccc(Br)cc1O)c1cc(Br)cc(Br)c1O` [drawing 79] registered a HepG2 of 32 µg/mL. It took 0.06 µg/mL (≈ 0.122 µM) to reach the 80% level in the data set with C. neoformans [1] (IC80). Also, in the data set on A549 (Tables 1-3), the A549 stood at 32 µg/mL. The “Killing assay 48H (μg/mL)” value in the data set on C. neoformans [2] is on record as “Fungistatic”.

Turning to `OC(Cn1cncn1)(Cn1cncn1)c1ccc(F)cc1F` [fluconazole, reference compound], in the data set on C. neoformans [4], the “mice survived at the end of the experiment” value is listed as 30%.

Values taken from patent US11414378B2, “Anti-fungals compounds targeting the synthesis of fungal sphingolipids” (THE RESEARCH FOUNDATION FOR THE STATE UNIVERSITY OF NEW YORK, priority 2017, dated 2022).
